The values that follow come from publication PMC9380671, “Development of spiro-3-indolin-2-one containing compounds of antiproliferative and anti-SARS-CoV-2 properties” (Scientific Reports, 2022).

One series has as its system VERO-E6 cells. As to conditions: cited from earlier work.
In series [1] the test system is SARS-CoV-2 (hCoV-19/Egypt/NRC-03/2020). Particulars: Vero-E6; cited from earlier work.
The test system of series [2] is MCF7 (breast) cancer cell line. Briefly: MTT antiproliferation, MCF7. Particulars: for IC50: Homo sapiens, MCF7, 72 h, read-out: IC50 (µM) ± SEM MCF7. In kind it is cell-based, human. Put shortly:
(§1)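 Cells seeded 30000/well for 24 h, then treated for 72 h with triplicate wells per dose; 0.5% DMSO as negative control. MTT (2.5 mg ml^-1) added for 4 h at 37 °C, crystals dissolved in 10% SDS overnight. Surviving fraction = O.D. treated / O.D. control.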

For series [3], the system named is PaCa2 (pancreatic) cancer cell line. Briefly: MTT antiproliferation, PaCa-2. In kind it is cell-based, human. As to conditions: for IC50: Homo sapiens, PaCa-2, 72 h, read-out: IC50 (µM) ± SEM PaCa-2.
The target of a further series is AChE (Homo sapiens, UniProt P22303). Briefly: AChE inhibition (DTNB, acetylthiocholine). In kind it is biochemical. Particulars: for IC50: read-out: AChE (IC50, μM) ± SD. On the procedure: All compounds were dissolved in MeOH.
Sequence of AChE (P22303 32-614): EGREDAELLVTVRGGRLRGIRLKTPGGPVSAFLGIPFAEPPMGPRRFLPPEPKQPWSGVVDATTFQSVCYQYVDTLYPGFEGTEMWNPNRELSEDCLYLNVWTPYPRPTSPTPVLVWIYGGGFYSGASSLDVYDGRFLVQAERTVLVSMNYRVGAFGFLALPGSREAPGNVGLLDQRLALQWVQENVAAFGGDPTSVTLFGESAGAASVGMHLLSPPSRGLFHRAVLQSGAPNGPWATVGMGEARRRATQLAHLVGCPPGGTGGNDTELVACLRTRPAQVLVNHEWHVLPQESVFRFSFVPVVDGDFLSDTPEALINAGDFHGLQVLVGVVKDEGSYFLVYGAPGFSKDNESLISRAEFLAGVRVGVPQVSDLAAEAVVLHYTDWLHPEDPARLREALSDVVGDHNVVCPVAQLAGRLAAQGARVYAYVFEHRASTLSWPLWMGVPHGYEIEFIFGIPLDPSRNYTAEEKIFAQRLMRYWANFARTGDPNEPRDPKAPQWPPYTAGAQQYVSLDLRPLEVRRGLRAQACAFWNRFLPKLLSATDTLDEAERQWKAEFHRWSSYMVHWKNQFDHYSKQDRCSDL
Series [4] has as its system HCT116 (colon) cancer cell line. In words: MTT antiproliferation, HCT116. In kind it is cell-based, human. As to conditions: for IC50: Homo sapiens, HCT-116, 72 h, read-out: IC50 (µM) ± SEM HCT116; for SI (selectivity index) HCT116: IC50 of RPE1/IC50 of cancer cell line. Put shortly: as §1
A further series addresses T1, VEGFR-2 (Homo sapiens, UniProt P35968).
T1 construct: Western blot technique was considered for EGFR and VEGFR-2 properties determination; endogenous in cells; host or cells: MCF7 (breast cancer cell line)
In kind it is cell-based. Particulars: western blot, MCF7, compound at its MTT IC50; for VEGFR-2 RQ (relative quantification): control RQ 3.2634. Put shortly:
(§2)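 Western blot of MCF7 breast cancer cells, each agent tested at its own IC50 from the MTT assay on that line, following the manufacturer's instructions.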

Another series addresses T2, EGFR (Homo sapiens, UniProt P00533).
T2 construct: Western blot technique was considered for EGFR and VEGFR-2 properties determination; endogenous in cells; host or cells: MCF7 (breast cancer cell line)
In kind it is cell-based. Particulars: western blot, MCF7, compound at its MTT IC50; for EGFR RQ (relative quantification): control RQ 3.4461. Put shortly:
as §2

The test system of series [5] is RPE1 (normal human immortalized retinal pigment epithelial cell line). In words: MTT toxicity towards normal cells, RPE1. In kind it is cell-based. As to conditions: RPE-1, read-out: IC50 (µM) ± SEM RPE1.
For series [6], the system named is SARS-CoV-2 (hCoV-19/Egypt/NRC-03/2020). In words: Vero-E6 cell viral infection model, anti-SARS-CoV-2 IC50 (CPE, crystal violet). In kind it is cell-based. Particulars: for IC50: Severe acute respiratory syndrome coronavirus 2, Vero C1008; for SI = CC50/IC50: Vero-E6, SARS-CoV-2.
Series [7] in a line: MTT cytotoxicity assay (CC50). As to conditions: African green monkey, VERO-E6 cells. In kind it is cell-based. Put shortly:
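VERO-E6 cells seeded at 3 x 10^5 cell/ml, grown 24 h at 37 °C, then exposed to compounds in triplicate for 24 h. Viability by MTT (4 h, 37 °C), formazan in acidified isopropanol read at 570 nm; CC50 by nonlinear regression versus untreated cells.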
(In general: Tetrazolium dyes change colour on reduction, which living cells bring about.)

Series [8] relates to A431 (skin squamous) cancer cell line. In words: MTT antiproliferation, A431. The class given is cell-based, human. As to conditions: for IC50: Homo sapiens; for SI (selectivity index) A431: IC50 of RPE1/IC50 of cancer cell line. Put shortly: as §1
The next series has as its target BChE (Homo sapiens, UniProt P06276). Briefly: BChE inhibition (DTNB, butyrylthiocholine iodide).
Setting [9] is: IC50 of RPE1/IC50 of cancer cell line.
Setting [10] is: Vero-E6, 72 h, reduction of virus-induced CPE, read-out: IC50 (µM) SARS-CoV-2.
[11] abbreviates: log of observed IC50 in μM, read-out: Observed log(IC50, μM) (SARS-CoV-2) (converted).
Where [12] appears, read: A-431, 72 h, read-out: IC50 (µM) ± SEM A431.
[13] abbreviates: A-431, read-out: Observed log(IC50, μM) (A431) (converted).

Where two headings read alike, the source gives them in different places.

T1 sequence (P35968 20-1356): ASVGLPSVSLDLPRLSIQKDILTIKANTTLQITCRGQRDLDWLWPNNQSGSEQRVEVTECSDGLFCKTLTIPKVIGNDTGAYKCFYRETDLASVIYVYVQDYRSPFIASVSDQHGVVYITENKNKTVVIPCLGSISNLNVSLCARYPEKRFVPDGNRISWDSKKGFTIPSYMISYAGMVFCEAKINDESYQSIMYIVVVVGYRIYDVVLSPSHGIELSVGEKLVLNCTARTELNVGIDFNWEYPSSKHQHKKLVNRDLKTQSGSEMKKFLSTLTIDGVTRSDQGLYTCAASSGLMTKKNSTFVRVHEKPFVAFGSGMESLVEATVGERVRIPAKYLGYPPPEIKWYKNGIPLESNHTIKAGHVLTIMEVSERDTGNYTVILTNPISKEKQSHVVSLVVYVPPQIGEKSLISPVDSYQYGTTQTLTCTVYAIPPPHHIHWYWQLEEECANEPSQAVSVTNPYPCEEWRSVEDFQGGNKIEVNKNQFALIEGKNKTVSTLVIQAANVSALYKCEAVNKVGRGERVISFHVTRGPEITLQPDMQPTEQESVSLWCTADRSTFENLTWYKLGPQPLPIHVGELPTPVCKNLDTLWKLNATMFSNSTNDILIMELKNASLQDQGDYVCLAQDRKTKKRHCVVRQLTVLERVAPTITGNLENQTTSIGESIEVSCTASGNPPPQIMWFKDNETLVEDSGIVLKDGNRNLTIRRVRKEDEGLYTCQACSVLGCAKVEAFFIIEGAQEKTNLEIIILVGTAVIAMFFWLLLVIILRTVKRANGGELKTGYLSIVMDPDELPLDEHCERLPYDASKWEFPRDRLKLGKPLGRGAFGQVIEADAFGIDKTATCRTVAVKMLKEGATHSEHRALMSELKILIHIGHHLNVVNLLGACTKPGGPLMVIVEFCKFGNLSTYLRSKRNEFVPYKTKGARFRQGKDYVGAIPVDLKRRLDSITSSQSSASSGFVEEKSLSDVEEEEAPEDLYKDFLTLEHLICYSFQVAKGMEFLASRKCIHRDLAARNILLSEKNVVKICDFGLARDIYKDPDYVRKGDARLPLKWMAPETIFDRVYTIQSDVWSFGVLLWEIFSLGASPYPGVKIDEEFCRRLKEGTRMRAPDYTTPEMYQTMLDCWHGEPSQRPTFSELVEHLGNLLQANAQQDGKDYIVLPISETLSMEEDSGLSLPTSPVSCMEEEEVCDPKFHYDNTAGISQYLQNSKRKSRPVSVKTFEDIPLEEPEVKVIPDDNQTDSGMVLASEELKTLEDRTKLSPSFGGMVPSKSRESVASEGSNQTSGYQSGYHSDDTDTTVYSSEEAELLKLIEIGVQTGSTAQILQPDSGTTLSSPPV
T2 sequence (P00533 25-1210): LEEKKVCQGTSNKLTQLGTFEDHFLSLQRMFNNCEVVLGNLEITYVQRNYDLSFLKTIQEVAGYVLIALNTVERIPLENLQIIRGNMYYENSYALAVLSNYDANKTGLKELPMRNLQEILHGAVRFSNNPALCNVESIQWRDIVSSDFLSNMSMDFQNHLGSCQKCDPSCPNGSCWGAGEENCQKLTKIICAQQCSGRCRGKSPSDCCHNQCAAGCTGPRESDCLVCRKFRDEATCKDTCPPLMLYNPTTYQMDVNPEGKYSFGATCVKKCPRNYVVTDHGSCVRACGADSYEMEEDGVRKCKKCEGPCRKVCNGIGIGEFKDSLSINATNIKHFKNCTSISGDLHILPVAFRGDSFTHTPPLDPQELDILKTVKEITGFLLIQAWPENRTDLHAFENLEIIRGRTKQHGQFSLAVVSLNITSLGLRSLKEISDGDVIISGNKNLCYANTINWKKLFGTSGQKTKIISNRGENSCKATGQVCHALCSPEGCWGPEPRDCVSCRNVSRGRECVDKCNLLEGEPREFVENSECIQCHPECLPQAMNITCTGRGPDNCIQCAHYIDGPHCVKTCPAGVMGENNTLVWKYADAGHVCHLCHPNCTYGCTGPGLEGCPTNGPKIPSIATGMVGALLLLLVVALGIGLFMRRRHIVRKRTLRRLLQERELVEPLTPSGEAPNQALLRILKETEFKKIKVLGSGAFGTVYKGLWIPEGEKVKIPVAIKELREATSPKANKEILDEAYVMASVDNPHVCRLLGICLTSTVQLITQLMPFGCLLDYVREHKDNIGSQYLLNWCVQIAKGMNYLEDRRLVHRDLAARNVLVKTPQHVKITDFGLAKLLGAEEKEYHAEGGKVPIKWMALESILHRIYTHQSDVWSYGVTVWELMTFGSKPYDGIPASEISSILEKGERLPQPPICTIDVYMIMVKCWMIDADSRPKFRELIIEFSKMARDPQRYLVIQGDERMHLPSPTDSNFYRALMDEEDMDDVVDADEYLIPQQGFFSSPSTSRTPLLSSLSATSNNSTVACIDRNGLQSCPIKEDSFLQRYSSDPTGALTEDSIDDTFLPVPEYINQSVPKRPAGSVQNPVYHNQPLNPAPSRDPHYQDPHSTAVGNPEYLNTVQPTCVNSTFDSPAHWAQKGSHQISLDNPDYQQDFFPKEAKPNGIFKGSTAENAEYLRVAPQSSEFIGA
Sequence of BChE (P06276 29-602, species assumed): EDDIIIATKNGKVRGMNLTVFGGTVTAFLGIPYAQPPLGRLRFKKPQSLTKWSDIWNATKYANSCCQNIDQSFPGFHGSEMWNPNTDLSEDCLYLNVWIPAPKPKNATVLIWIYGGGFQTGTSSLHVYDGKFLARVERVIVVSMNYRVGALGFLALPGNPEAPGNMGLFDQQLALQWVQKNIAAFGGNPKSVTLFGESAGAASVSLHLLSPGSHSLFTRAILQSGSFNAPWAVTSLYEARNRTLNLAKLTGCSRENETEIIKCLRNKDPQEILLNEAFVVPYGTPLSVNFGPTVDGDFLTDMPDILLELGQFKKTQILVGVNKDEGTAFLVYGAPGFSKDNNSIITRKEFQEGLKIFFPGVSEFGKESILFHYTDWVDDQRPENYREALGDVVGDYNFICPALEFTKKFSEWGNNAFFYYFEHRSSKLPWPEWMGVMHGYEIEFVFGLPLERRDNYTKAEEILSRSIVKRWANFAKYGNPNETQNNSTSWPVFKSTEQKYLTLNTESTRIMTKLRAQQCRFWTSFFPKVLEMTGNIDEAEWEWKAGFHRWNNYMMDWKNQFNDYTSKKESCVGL
Protocol for BChE: Butyrylthiocholine iodide and acetylthiocholine were utilized as substrates in BChE and AChE assays, respectively, where DTNB was served as indicator. All compounds were dissolved in MeOH. […] Blank assays were performed by replacing the enzyme (20 μL) with buffer and their absorbances were recorded for correction of the spontaneous lysis of the indicator or inherent color of the inhibitor.
% Inhibition = [1−(corrected A/corrected B)] * 100

A word on the CC50: it is the concentration that lowers cell viability or growth by half. One may read the IC50 as the concentration that gives 50% inhibition. Take `CCN(CCO)CCCC(C)Nc1ccnc2cc(Cl)ccc12` (centres unmarked) [Hydroxychloroquine]: the CC50 in the series with VERO-E6 cells is 356 µM. Also, in [1], the IC50 is 36.9 µM and the “SI = CC50/IC50” value is on record as 9.7.

`NC(=O)c1nc(F)c[nH]c1=O` [Favipiravir]: the CC50 in the series with VERO-E6 cells is 5260 µM. In series [1], the IC50 was 1380 µM and the “SI = CC50/IC50” value is on record as 3.8.

Regarding `CCN(CC)CCCC(C)Nc1ccnc2cc(Cl)ccc12` (centres unmarked) [Chloroquine], the IC50 in [1] is 25 µM.

As to `CN1CC(c2ccc(Cl)cc2)C2(CN(S(C)(=O)=O)C/C(=C\c3ccc(Cl)cc3)C2=O)C12C(=O)Nc1ccccc12` (centres unmarked) [Compound 6i, (E)-5″-(4-Chlorobenzylidene)-4′-(4-chlorophenyl)-1′-methyl-1″-(methylsulfonyl)dispiro[indoline-3,2′-pyrrolidine-3′,3″-piperidine]-2,4″-dione], the IC50 in series [2] stood at 5.01 ± 0.29 µM; in [3] it was 9.04 ± 0.62 µM; on AChE it was 18.2 ± 1.48 µM; in [4], 5.47 ± 0.32 µM; in [5], 14.8 ± 1.57 µM; in [6] (setting [10]), 113 µM. The IC50 in [6] (setting [11]) is 113 µM; in series [8] (setting [12]), 4.4 ± 0.49 µM; in [8] (setting [13]) it was 4.4 µM; against BChE it was 13.6 ± 2.12 µM. Moreover, the “SI (selectivity index) MCF7” value in series [2] (setting [9]) is listed as 2.9. Besides, in series [3] (setting [9]), the “SI (selectivity index) PaCa-2” value is recorded as 1.6. Besides, the “SI = IC50 (AChE)/IC50 (BChE)” value at AChE is given as 1.3. The “SI (selectivity index) HCT116” value in series [4] came to 2.7. Also, the “VEGFR-2 % Inhibition” value at VEGFR-2 is 64.2%. The “VEGFR-2 RQ (relative quantification)” value at VEGFR-2 is 1.1684. Moreover, on EGFR, the “EGFR % Inhibition” value was 68.7%. Moreover, on EGFR, the “EGFR RQ (relative quantification)” value was determined as 1.077. The “SI = CC50/IC50” value in series [6] was determined as 2.1. The compound also returned a CC50 at 24 h in [7] of 235 µM. Also, the “SI (selectivity index) A431” value in series [8] is recorded as 3.4.

For `CCS(=O)(=O)N1C/C(=C\c2ccccc2)C(=O)C2(C1)C(c1ccccc1)CN(C)C21C(=O)Nc2ccccc21` (centres unmarked) [Compound 6c, (E)-5″-Benzylidene-1″-(ethylsulfonyl)-1′-methyl-4′-phenyldispiro[indoline-3,2′-pyrrolidine-3′,3″-piperidine]-2,4″-dione], the IC50 in [2] was over 50 µM; in [3] it was over 50 µM; at AChE, 78 ± 3.26 µM; in [4] it was 6.12 ± 0.44 µM; in series [5], over 50 µM; in series [6] (setting [10]), 103 µM. In addition, the IC50 was 103 µM in series [6] (setting [11]), 33.2 ± 0.91 µM in [8] (setting [12]), 33.2 µM in series [8] (setting [13]) and 65.4 ± 2.42 µM against BChE. The “SI = IC50 (AChE)/IC50 (BChE)” value at AChE was 1.2. Besides, in [4], the “SI (selectivity index) HCT116” value is over 8.2. Also, the “VEGFR-2 % Inhibition” value at VEGFR-2 amounted to 63.8%. In addition, the “VEGFR-2 RQ (relative quantification)” value at VEGFR-2 was found to be 1.18. Further, the “EGFR % Inhibition” value at EGFR was 69.6%. In addition, the “EGFR RQ (relative quantification)” value at EGFR was found to be 1.0493. For the same compound, the “SI = CC50/IC50” value in [6] was found to be 55.5. The compound also displayed a CC50 at 24 h in [7] of 5700 µM. In [8], the “SI (selectivity index) A431” value was over 1.5.
